{
  "source": "patent US20030150812A1",
  "about": "“Novel parallel throughput system” (priority 2001, published 2003)",
  "key": {"[1]": {"target": "α3β2 nicotinic receptor (Homo sapiens, UniProt P17787+P32297)", "sequence (P32297 32-505)": "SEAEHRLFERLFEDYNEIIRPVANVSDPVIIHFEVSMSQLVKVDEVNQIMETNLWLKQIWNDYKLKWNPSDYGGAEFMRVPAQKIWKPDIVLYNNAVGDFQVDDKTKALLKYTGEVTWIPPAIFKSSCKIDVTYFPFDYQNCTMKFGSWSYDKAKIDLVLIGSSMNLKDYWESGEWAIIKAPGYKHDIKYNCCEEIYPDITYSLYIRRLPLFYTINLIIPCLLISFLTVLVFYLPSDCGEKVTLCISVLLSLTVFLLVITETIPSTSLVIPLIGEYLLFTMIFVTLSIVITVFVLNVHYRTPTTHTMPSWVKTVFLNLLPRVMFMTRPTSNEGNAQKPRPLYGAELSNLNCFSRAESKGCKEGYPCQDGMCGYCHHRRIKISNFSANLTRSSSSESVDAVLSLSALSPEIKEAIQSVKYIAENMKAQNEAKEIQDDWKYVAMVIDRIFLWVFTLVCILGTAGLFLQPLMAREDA", "sequence (P17787 26-502)": "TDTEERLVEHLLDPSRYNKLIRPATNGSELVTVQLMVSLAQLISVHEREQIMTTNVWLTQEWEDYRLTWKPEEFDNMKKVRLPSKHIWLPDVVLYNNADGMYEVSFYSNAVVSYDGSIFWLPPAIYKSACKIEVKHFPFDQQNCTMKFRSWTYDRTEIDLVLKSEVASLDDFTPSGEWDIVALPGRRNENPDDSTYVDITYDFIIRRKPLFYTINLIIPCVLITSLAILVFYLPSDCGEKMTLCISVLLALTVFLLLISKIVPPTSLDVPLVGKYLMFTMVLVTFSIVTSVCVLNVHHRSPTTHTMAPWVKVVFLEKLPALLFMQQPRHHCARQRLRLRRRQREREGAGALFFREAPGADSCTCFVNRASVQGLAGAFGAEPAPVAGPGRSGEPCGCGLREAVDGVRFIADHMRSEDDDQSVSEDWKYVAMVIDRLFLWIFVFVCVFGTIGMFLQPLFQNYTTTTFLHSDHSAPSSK", "conditions": "Column A with α3β2, 24 cm, 50 nM injection, 10 mM Amm Acetate pH 7.4 and 1 nM dinitrobenzoic acid, 261 nm", "procedure": "(§1) A parallel screen was run using two separate columns containing the different nicotinic receptors α3β2 and […] in the separate columns. […] The mobile phase contained 10 mM Amm Acetate at pH 7.4 and 1 nM Dinitrobenzoic acid. The columns were 24 cm in length."}, "[2]": {"target": "α3β4 nicotinic receptor (Homo sapiens, UniProt P30926+P32297)", "sequence (P32297 32-505)": "as the sequence (P32297 32-505) above", "sequence (P30926 22-498)": "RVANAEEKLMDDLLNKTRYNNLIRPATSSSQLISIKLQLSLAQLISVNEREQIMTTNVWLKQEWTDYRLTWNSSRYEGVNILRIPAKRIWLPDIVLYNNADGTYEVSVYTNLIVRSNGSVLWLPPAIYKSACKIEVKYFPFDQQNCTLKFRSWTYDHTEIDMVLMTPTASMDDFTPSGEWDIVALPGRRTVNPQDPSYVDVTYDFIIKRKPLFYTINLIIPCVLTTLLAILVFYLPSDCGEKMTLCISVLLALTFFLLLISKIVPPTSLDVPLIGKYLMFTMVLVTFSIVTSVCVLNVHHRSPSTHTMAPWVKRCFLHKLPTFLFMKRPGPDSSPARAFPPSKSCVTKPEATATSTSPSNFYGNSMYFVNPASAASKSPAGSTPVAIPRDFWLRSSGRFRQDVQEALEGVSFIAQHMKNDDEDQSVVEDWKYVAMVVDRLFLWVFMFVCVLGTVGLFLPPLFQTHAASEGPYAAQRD", "conditions": "Column B with α3β4, 24 cm, 50 nM injection, 10 mM Amm Acetate pH 7.4 and 1 nM dinitrobenzoic acid, 261 nm", "procedure": "as §1"}},
  "data": [
    {"smiles": "CN1CCCC1c1cccnc1", "note": "(centres unmarked) [nicotine]", "values": [
      {"measurement": "time on receptor column", "setting": "[1]", "value": 2.25, "unit": "min"},
      {"measurement": "time on receptor column", "setting": "[2]", "value": 0.98, "unit": "min"}
    ]}
  ]
}
